pIC50: −log10 of the molar value.
Assays:
Conditions in all cases: FP, probe AbuRPFK-5FAM, 60 min at 25° C.
XIAP-BIR3 = biological target: T1, XIAP-BIR3 (Homo sapiens, UniProt P98170); assay: XIAP-BIR3 fluorescence polarization binding assay
T1 construct: purchased Reaction Biology APT-11-374
Excerpt: (§1) IAPs are one main cause of cancer development and may result from overexpression of anti-apoptotic proteins. This protocol establishes three binding assays for XIAP Bir3 domain, cIAP1 and cIAP2 using FP (Fluorescence polarization) technology. The fluorescence probe used is a synthetic peptide conjugated to 5-carboxyfluorescein (AbuRPFK-5FAM). The fluorescence polarization value (mP) was detected by Envision, which was used to reflect the binding degree of protein and fluorescent marker. Reagents and equipment used in the assay are listed below, followed by the protocol.
(§2) • a) Prepare 100 times of the final cpd concentration in appropriate tube and transfer 5 uL compound (“cpd”) to 45 μL 1× reaction buffer with 10% DMSO. • b) The final reference cpd concentration is 10000, 3333.3, 1111.1, 370.4, 123.4, 41.2, 13.7, 4.57, 1.52, 0.51, 0.17 and 0 nM. So the 100 times of the concentration is 1000, 333.3, 111.1, 37.04, 12.34, 4.12, […], 0.15, 0.05, 0.017 and 0 μM. The final test cpds concentration is 3333.3, 1111.1, 370.4, 123.4, 41.2, 13.7, 4.57, 1.52, 0.51, 0.17, 0.057 and 0 nM. So the 100 times of the concentration is 333.3, 111.1, 37.04, 12.34, 4.12, […], 0.15, 0.05, 0.017, 0.0057 and 0 μM • c) Add 8 μL/well each dose enzyme to 384 well microplate (ProxiPlate-384 F Plus, 6008260) using multichannel pipette, prepared in step 2.1.1.2 • d) Centrifuge at 1000 rpm. • e) Add 2 μL/well cpd to 384 well microplate (ProxiPlate-384 F Plus, 6008260) using multichannel pipette, prepared in step a). • f) Centrifuge at 1000 rpm. RT, 15 min. • g) Start the assay by adding 10 uL/well substrate (prepared in step 2.1.1.3) to the same 384 well microplate using multichannel pipette • h) Centrifuge at 1000 rpm. • i) Cover the assay plate and incubate for 60 min at 25° C. • j) Read on Envision 2104 for mP and plot the IC50s with mP values. • k) Data analysis: IC50s were determined based on a non-linear regression analysis of data collected.

cIAP1-BIR3 = biological target: T2, cIAP1-BIR3 (Homo sapiens, UniProt Q13490); assay: cIAP1-BIR3 fluorescence polarization binding assay
T2 construct: cIAP1-BIR3; Reaction Biology; APT-11-370; purchased Reaction Biology APT-11-370
T2 sequence (Q13490 253-363 limits assumed): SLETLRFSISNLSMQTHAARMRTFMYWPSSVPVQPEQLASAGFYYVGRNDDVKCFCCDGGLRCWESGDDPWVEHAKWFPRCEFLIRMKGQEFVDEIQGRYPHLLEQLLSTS
Excerpt: as §1, §2

cIAP2-BIR3 = biological target: T3, cIAP2-BIR3 (Homo sapiens, UniProt Q13489); assay: cIAP2-BIR3 fluorescence polarization binding assay
T3 construct: cIAP2-BIR3; Reaction Biology; APT-11-372; purchased Reaction Biology APT-11-372
T3 sequence (Q13489 238-349 limits assumed): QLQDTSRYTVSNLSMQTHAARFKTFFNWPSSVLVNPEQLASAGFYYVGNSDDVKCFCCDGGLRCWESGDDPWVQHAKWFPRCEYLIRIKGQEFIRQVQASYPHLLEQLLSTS
Excerpt: as §1, §2

T1 sequence (P98170 241-356 limits assumed): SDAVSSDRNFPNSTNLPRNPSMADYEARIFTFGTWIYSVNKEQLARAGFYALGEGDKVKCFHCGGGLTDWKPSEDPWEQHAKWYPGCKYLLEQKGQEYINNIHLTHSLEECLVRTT

Question: CN[C@@H](C)C(=O)N[C@H](C(=O)N1CCC[C@H]1C(=O)N[C@@H]1CCCc2c1cccc2N1CCN(c2cccc3c2CCC[C@H]3NC(=O)[C@@H]2CCCN2C(=O)[C@@H](NC(=O)[C@H](C)NC)C(C)C)CC1)C(C)C [Compound I-C, (S)-1-((S)-3-Methyl-2-((S)-2-(methylamino)propanamido)butanoyl)-N—((R)-5-(4-((R)-5-((S)-1-((S)-3-methyl-2-((S)-2-(methylamino)propanamido)butanoyl)pyrrolidine-2-carboxamido)-5,6,7,8-tetrahydronaphthalen-1-yl)piperazin-1-yl)-1,2,3,4-tetrahydronaphthalen-1-yl)pyrrolidine-2-carboxamide] was tested. Which pIC50 (XIAP-BIR3) did it give?
Answer: 7.00 to 8.00

Question: And the pIC50 (cIAP1-BIR3)?
Answer: 8.00 to 10.00

Question: What about the pIC50 (cIAP2-BIR3) of the same compound?
Answer: 7.00 to 8.00

Question: With CN[C@@H](C)C(=O)N[C@H](C(=O)N1C[C@@H](OCCC(=O)N2CCN(C(=O)CCO[C@H]3C[C@@H](C(=O)N[C@@H]4CCCc5ccccc54)N(C(=O)[C@@H](NC(=O)[C@H](C)NC)C4CC4)C3)CC2)C[C@H]1C(=O)N[C@@H]1CCCc2ccccc21)C1CC1 [Compound IV-C, (2S,4S)-1-[(2S)-2-Cyclopropyl-2-[(2S)-2-(methylamino)propanamido]acetyl]-4-{3-[4-(3-{[(3S,5S)-1-[(2S)-2-cyclopropyl-2-[(2S)-2-(methylamino)propanamido]acetyl]-5-{[(1R)-1,2,3,4-tetrahydronaphthalen-1-yl]carbamoyl}pyrrolidin-3-yl]oxy}propanoyl)piperazin-1-yl]-3-oxopropoxy}-N-[(1R)-1,2,3,4-tetrahydronaphthalen-1-yl]pyrrolidine-2-carboxamide] as the compound, how does the pIC50 (XIAP-BIR3) read?
Answer: 6.00 to 7.00

Question: And the pIC50 (cIAP1-BIR3)?
Answer: 8.00 to 10.00

Question: And the pIC50 (cIAP2-BIR3)?
Answer: 8.00 to 10.00

Question: With CC[C@H](NC(=O)[C@H](C)NC)C(=O)N1CCC[C@H]1C(=O)N[C@@H]1CCCc2c1cccc2N1CCN(c2cccc3c2CCC[C@H]3NC(=O)[C@@H]2CCCN2C(=O)[C@H](CC)NC(=O)[C@H](C)NC)CC1 [Compound I-B, (2S)-1-[(2S)-2-[(2S)-2-(Methylamino)propanamido]butanoyl]-N-[(1R)-5-[4-[(5R)-5-[(2S)-1-[(2S)-2-[(2S)-2-(methylamino)propanamido]butanoyl]pyrrolidine-2-amido]-5,6,7,8-tetrahydronaphthalen-1-yl]piperazin-1-yl]-1,2,3,4-tetrahydronaphthalen-1-yl]pyrrolidine-2-carboxamide] as the compound, how does the pIC50 (XIAP-BIR3) read?
Answer: 6.00 to 7.00

Question: What about the pIC50 (cIAP1-BIR3) of the same compound?
Answer: 8.00 to 10.00

Question: And the pIC50 (cIAP2-BIR3)?
Answer: 7.00 to 8.00

Question: How did the pIC50 (XIAP-BIR3) turn out when CN[C@@H](C)C(=O)N[C@H](C(=O)N1C[C@@H](OCCC(=O)N2CCN(C(=O)CCO[C@H]3C[C@@H](C(=O)N[C@@H]4CCCc5ccccc54)N(C(=O)[C@@H](NC(=O)[C@H](C)NC)C4CCCCC4)C3)CC2)C[C@H]1C(=O)N[C@@H]1CCCc2ccccc21)C1CCCCC1 [Compound IV, (2S,4S)-1-[(2S)-2-Cyclohexyl-2-[(2S)-2-(methylamino)propanamido]acetyl]-4-{3-[4-(3-{[(3S,5S)-1-[(2S)-2-cyclohexyl-2-[(2S)-2-(methylamino)propanamido]acetyl]-5-{[(1R)-1,2,3,4-tetrahydronaphthalen-1-yl]carbamoyl}pyrrolidin-3-yl]oxy}propanoyl)piperazin-1-yl]-3-oxopropoxy}-N-[(1R)-1,2,3,4-tetrahydronaphthalen-1-yl]pyrrolidine-2-carboxamide] was run?
Answer: 7.00 to 8.00

Question: And the pIC50 (cIAP1-BIR3)?
Answer: 8.00 to 10.00

Question: And the pIC50 (cIAP2-BIR3)?
Answer: 7.00 to 8.00

Question: What does the source list for CN[C@@H](C)C(=O)N[C@H](C(=O)N1CCC[C@H]1C(=O)N[C@@H]1CCCc2c1cccc2N1CCN(c2cccc3c2CCC[C@H]3NC(=O)[C@@H]2CCCN2C(=O)[C@@H](NC(=O)[C@H](C)NC)C(C)(C)C)CC1)C(C)(C)C [Compound I-A, (2S,2′S,29S,34S)—N, N′-((1R,1′R)-5,5′-(Piperazine-1,4-diyl)bis(1,2,3,4-tetrahydronaphthalene-5,1-diyl))bis(1-((S)-3,3-dimethyl-2-((S)-2-(methylamino)propanamido)butanoyl)pyrrolidine-2-carboxamide)]?
Answer: pIC50 (XIAP-BIR3): 6.00 to 7.00; pIC50 (cIAP1-BIR3): 8.00 to 10.00; pIC50 (cIAP2-BIR3): 7.00 to 8.00

Question: How did the pIC50 (XIAP-BIR3) turn out when CN[C@@H](C)C(=O)N[C@@H](C)C(=O)N1C[C@@H](OCCCN2CCN(CCCO[C@H]3C[C@@H](C(=O)N[C@@H]4CCCc5ccccc54)N(C(=O)[C@H](C)NC(=O)[C@H](C)NC)C3)CC2)C[C@H]1C(=O)N[C@@H]1CCCc2ccccc21 [Compound II-A, (2S,4S)-1-[(2S)-2-[(2S)-2-(Methylamino)propanamido]propanoyl]-4-{3-[4-(3-{[(3S,5S)-1-[(2S)-2-[(2S)-2-(methylamino)propanamido]propanoyl]-5-{[(1R)-1,2,3,4-tetrahydronaphthalen-1-yl]carbamoyl}pyrrolidin-3-yl]oxy}propyl)piperazin-1-yl]propoxy}-N-[(1R)-1,2,3,4-tetrahydronaphthalen-1-yl]pyrrolidine-2-carboxamide] was run?
Answer: 6.00 to 7.00

Question: What about the pIC50 (cIAP1-BIR3) of the same compound?
Answer: 8.00 to 10.00

Question: And the pIC50 (cIAP2-BIR3)?
Answer: 7.00 to 8.00

Question: CN[C@@H](C)C(=O)N[C@H](C(=O)N1C[C@@H](OCCCN2CCN(CCCO[C@H]3C[C@@H](C(=O)N[C@@H]4CCCc5ccccc54)N(C(=O)[C@@H](NC(=O)[C@H](C)NC)C4CCC4)C3)CC2)C[C@H]1C(=O)N[C@@H]1CCCc2ccccc21)C1CCC1 [Compound II-H, (2S,4S)-1-[(2S)-2-Cyclobutyl-2-[(2S)-2-(methylamino)propanamido]acetyl]-4-[3-[4-(3-[[(3S,5S)-1-[(2S)-2-cyclobutyl-2-[(2S)-2-(methylamino)propanamido]acetyl]-5-[[(1R)-1,2,3,4-tetrahydronaphthalen-1-yl]carbamoyl]pyrrolidin-3-yl]oxy]propyl)piperazin-1-yl]propoxy]-N-[(1R)-1,2,3,4-tetrahydronaphthalen-1-yl]pyrrolidine-2-carboxamide] was tested. Which pIC50 (XIAP-BIR3) did it give?
Answer: 7.00 to 8.00

Question: And the pIC50 (cIAP1-BIR3)?
Answer: 8.00 to 10.00

Question: What about the pIC50 (cIAP2-BIR3) of the same compound?
Answer: 7.00 to 8.00

Question: How did the pIC50 (XIAP-BIR3) turn out when CN[C@@H](C)C(=O)N[C@H](C(=O)N1C[C@@H](OCCCN2CCN(CCCO[C@H]3C[C@@H](C(=O)N[C@@H]4CCCc5ccccc54)N(C(=O)[C@@H](NC(=O)[C@H](C)NC)C(C)(C)C)C3)CC2)C[C@H]1C(=O)N[C@@H]1CCCc2ccccc21)C(C)(C)C [Compound II-D, (2S,4S)-1-[(2S)-3,3-Dimethyl-2-[(2S)-2-(methylamino)propanamido]butanoyl]-4-[3-[4-(3-[[(3S,5S)-1-[(2S)-3,3-dimethyl-2-[(2S)-2-(methylamino)propanamido]butanoyl]-5-[[(1R)-1,2,3,4-tetrahydronaphthalen-1-yl]carbamoyl]pyrrolidin-3-yl]oxy]propyl)piperazin-1-yl]propoxy]-N-[(1R)-1,2,3,4-tetrahydronaphthalen-1-yl]pyrrolidine-2-carboxamide] was run?
Answer: 7.00 to 8.00

Question: What about the pIC50 (cIAP1-BIR3) of the same compound?
Answer: 8.00 to 10.00

Question: What about the pIC50 (cIAP2-BIR3) of the same compound?
Answer: 7.00 to 8.00

Question: What does the source list for CN[C@@H](C)C(=O)N[C@H](C(=O)N1C[C@@H](OCCCN2CCN(CCCO[C@H]3C[C@@H](C(=O)N[C@@H]4CCCc5ccccc54)N(C(=O)[C@@H](NC(=O)[C@H](C)NC)C(C)C)C3)CC2)C[C@H]1C(=O)N[C@@H]1CCCc2ccccc21)C(C)C [Compound II-C, (2S,4S)-1-[(2S)-3-Methyl-2-[(2S)-2-(methylamino)propanamido]butanoyl]-4-{3-[4-(3-{[(3S,5S)-1-[(2S)-3-methyl-2-[(2S)-2-(methylamino)propanamido]butanoyl]-5-{[(1R)-1,2,3,4-tetrahydronaphthalen-1-yl]carbamoyl}pyrrolidin-3-yl]oxy}propyl)piperazin-1-yl]propoxy}-N-[(1R)-1,2,3,4-tetrahydronaphthalen-1-yl]pyrrolidine-2-carboxamide]?
Answer: pIC50 (XIAP-BIR3): 8.00 to 10.00; pIC50 (cIAP1-BIR3): 8.00 to 10.00; pIC50 (cIAP2-BIR3): 8.00 to 10.00

Question: Which results are given for CN[C@@H](C)C(=O)N[C@@H](C)C(=O)N1C[C@@H](OCCC(=O)N2CCN(C(=O)CCO[C@H]3C[C@@H](C(=O)N[C@@H]4CCCc5ccccc54)N(C(=O)[C@H](C)NC(=O)[C@H](C)NC)C3)CC2)C[C@H]1C(=O)N[C@@H]1CCCc2ccccc21 [Compound IV-A, (2S,4S)-1-[(2S)-2-[(2S)-2-(Methylamino)propanamido]propanoyl]-4-[3-[4-(3-[[(3S,5S)-1-[(2S)-2-[(2S)-2-(methylamino)propanamido]propanoyl]-5-[[(1R)-1,2,3,4-tetrahydronaphthalen-1-yl]carbamoyl]pyrrolidin-3-yl]oxy]propanoyl)piperazin-1-yl]-3-oxopropoxy]-N-[(1R)-1,2,3,4-tetrahydronaphthalen-1-yl]pyrrolidine-2-carboxamide]?
Answer: pIC50 (XIAP-BIR3): 6.00 to 7.00; pIC50 (cIAP1-BIR3): 8.00 to 10.00; pIC50 (cIAP2-BIR3): 7.00 to 8.00

From patent publication US20210371459A1, “DIMERIC PEPTIDE INHIBITORS OF APOPTOSIS PROTEINS” (Hepagene Therapeutics (HK) Limited, priority 2017, published 2021)
